Laboratory results taken from patent US7297714B2, “Inhibitors of cathepsin S” (IRM LLC, priority 2003, dated 2007).

Legend:
Type in all cases: biochemical
Cathepsin B = Cathepsin B (Homo sapiens, UniProt P07858); test: Cathepsin B inhibition assay, selectivity for cathepsin S over cathepsin B; conditions: ratio of cathepsin B inhibition constant to cathepsin S inhibition constant
Experimental: (§1) The optimal substrate for cathepsin B, acetyl-histidine-proline-valine-lysine-amino carbamoyl coumarin, was identified from screening a combinatorial library of fluorogenic peptide substrates (Harris, J. L., B. J. Backes, et al., Proc Natl Acad Sci US A 2000, 97(14), 7754-9). Kinetic measurements are performed in a total reaction volume of 30 μl in 384-well microtiter plates. Cathepsin B, at a final concentration of 1.5 nM (active site), is incubated with the compounds at twelve varying concentrations in a buffer containing 100 mM NaAc (pH5.5), 1 mM EDTA, 100 mM NaCl, 0.01% Brij-35 for 20 minutes at room temperature. Control reactions in the absence of inhibitor are performed in replicates of 24. The reactions are initiated by adding the substrate, acetyl-histidine-proline-valine-lysine-amino carbamoyl coumarin, to a final concentration of 10 μM. The rate of substrate hydrolysis is measured by monitoring the increase in fluorescence at an excitation wavelength of 380 nm and an emission wavelength of 450 nm that results from cleavage of the aniline bond in the substrate by the enzyme. The apparent inhibition constants for the compounds are determined from the enzyme progress curves (Kuzmic, P., K. C. Elrod, et al., Anal Biochem 2000, 286(1), 45-50) and are then used to calculate the inhibition constants for competitive inhibitors.
(§2) Selectivity for cathepsin S in the presence of cathepsin isozymes was determined by the ratio of the cathepsin isozyme inhibition constant of a compound of the present invention to the cathepsin S inhibition constant of the same compound. Preferred compounds of the present invention selective for cathepsin S have ratios of greater than 10. More preferred compounds of the present invention selective for cathepsin S have ratios of greater than 100. Most preferred compounds of the present invention selective for cathepsin S have ratios of greater than 1000.

Cathepsin K = biological target: T1, Cathepsin K (Homo sapiens, UniProt P43235); test: Cathepsin K inhibition assay, selectivity for cathepsin S over cathepsin K; conditions: ratio of cathepsin K inhibition constant to cathepsin S inhibition constant
T1 sequence (P43235 115-329): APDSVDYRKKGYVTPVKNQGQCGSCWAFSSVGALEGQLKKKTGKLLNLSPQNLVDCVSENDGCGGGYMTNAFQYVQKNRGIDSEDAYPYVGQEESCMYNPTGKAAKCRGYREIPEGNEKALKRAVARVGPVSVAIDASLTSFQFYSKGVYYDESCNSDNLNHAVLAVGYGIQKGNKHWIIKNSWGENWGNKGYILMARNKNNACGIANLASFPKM
Experimental: as §1, with “cathepsin K, acetyl-lysine-histidine-proline-lysine-amino” for “cathepsin B, acetyl-histidine-proline-valine-lysine-amino”, “Sci USA” for “Sci US A”, “Cathepsin K,” for “Cathepsin B,”, “of 3.5” for “of 1.5”, “substrate, acetyl-lysine-histidine-proline-lysine-amino” for “substrate, acetyl-histidine-proline-valine-lysine-amino”, “of 40” for “of 10”
as §2

Cathepsin L = Cathepsin L (Homo sapiens, UniProt P07711); test: Cathepsin L inhibition assay, selectivity for cathepsin S over cathepsin L; conditions: ratio of cathepsin L inhibition constant to cathepsin S inhibition constant
Cathepsin L, sequence (P07711 114-333, species assumed): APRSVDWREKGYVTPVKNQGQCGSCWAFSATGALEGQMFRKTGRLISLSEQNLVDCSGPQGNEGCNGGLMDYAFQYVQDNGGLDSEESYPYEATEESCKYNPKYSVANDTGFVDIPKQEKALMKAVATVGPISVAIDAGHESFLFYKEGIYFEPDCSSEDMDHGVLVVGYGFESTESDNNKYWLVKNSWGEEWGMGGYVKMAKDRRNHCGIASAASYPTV
Experimental: The optimal substrate for cathepsin L, acetyl-histidine-lysine-phenylalanine-lysine-amino carbamoyl coumarin, was identified from screening a combinatorial library of fluorogenic peptide substrates (Harris, J. L., B. J. Backes, et al.; Proc Natl Acad Sci USA 2000, 97(14), 7754-9). Kinetic measurements are performed in a total reaction volume of 30 μl in 384-well microtiter plates. Cathepsin L, at a final concentration of 0.1 nM (active site), is incubated with the compounds at twelve varying concentrations in a buffer containing 100 mM NaAc (pH5.5), 1 mM EDTA, 100 mM NaCl, 0.01% Brij-35 for 20 minutes at room temperature. Control reactions in the absence of inhibitor are performed in replicates of 24. The reactions are initiated by adding the substrate, acetyl-histidine-lysine-phenylalanine-lysine-amino carbamoyl coumarin, to a final concentration of 20 μM. The rate of substrate hydrolysis is measured by monitoring the increase in fluorescence at an excitation wavelength of 380 nm and an emission wavelength of 450 nm that results from cleavage of the aniline bond in the substrate by the enzyme. The apparent inhibition constants for the compounds are determined from the enzyme progress curves (Kuzmic, P., K. C. Elrod, et al., Anal Biochem 2000, 286(1), 45-50) and are then used to calculate the inhibition constants for competitive inhibitors.
as §2

Cathepsin S = Cathepsin S (Homo sapiens, UniProt P25774); test: Cathepsin S inhibition assay (fluorogenic peptide substrate); conditions: Cathepsin S inhibition constant; pH5.5; read-out: Ki Cat. S
Cathepsin S, sequence (P25774 115-331, species assumed): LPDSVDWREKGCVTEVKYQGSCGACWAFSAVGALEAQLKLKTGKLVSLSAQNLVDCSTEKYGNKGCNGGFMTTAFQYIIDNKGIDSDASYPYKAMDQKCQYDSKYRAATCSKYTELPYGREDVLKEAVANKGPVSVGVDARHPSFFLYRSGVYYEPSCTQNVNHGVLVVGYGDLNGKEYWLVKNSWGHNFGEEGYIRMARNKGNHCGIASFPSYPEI
Text: “Inhibition constant”, Ki, is the dissociation constant of the enzyme-inhibitor complex, or the reciprocal of the binding affinity of the inhibitor to the enzyme. For classical inhibition the value of Ki is much greater than the enzyme concentration and the Ki can be measured by monitoring the rate of reaction for a competitive substrate at multiple inhibitor concentrations. The inhibited rates are then fit by nonlinear regression to the following equation: […]
The assumption being made for the classical inhibition described above is that the free inhibitor concentration is equal to the total inhibitor concentration. For inhibitors that have Ki's that are approximately equal to the enzyme concentration [E], the assumption that the free inhibitor concentration is equal to the total inhibitor concentration is no longer valid and an alternative equation has to be fit for determination of the apparent inhibition constant, Ki^app using described methods (Kuzmic, P., K. C. Elrod, et al., Anal Biochem 2000, 286(1), 45-50):
as §1, with “cathepsin S,” for “cathepsin B,”, “Sci U S” for “Sci US”, “Cathepsin S,” for “Cathepsin B,”, “of 0.3-3” for “of 1.5”, “of 50” for “of 10”

| Compound | Selectivity for Cat. S over Cat. B (Cathepsin B) | Selectivity for Cat. S over Cat. K (Cathepsin K) | Selectivity for Cat. S over Cat. L (Cathepsin L) | Ki (Cathepsin S) |
| --- | --- | --- | --- | --- |
| O=C1CC(NC(=O)C(CC2CCCC2)NC(=O)c2ccc(-c3cccc(F)c3)o2)C(OC2CCCC2)O1 [Example 26, (3S)-[3-Cyclopentyl-(2S)-{[5-(3-fluoro-phenyl)-furan-2-carbonyl]-amino}propionylamino]-2-cyclopentoxy-5-oxo-tetrahydrofuran] | +++ (+++, >1000) | + (+, >10) | +++ (+++, >1000) | < 100 nM |
| COC1OC(=O)C[C@@H]1NC(=O)[C@H](CC1CCCCC1)NC(=O)c1ccc(-c2cccc(F)c2)o1 (stereo partly drawn) [Example 16, (3S)-[3-Cyclohexyl-(2S)-{[5-(3-fluoro-phenyl)-furan-2-carbonyl]-amino}propionylamino]-2-methoxy-5-oxo-tetrahydrofuran] | + (+, >10) | + (+, >10) | + (+, >10) | < 1000 nM |
| CCOC1OC(=O)C[C@@H]1NC(=O)[C@H](CC1CCCC1)NC(=O)c1ccc(-c2cccc(F)c2)o1 (stereo partly drawn) [Example 12, (3S)-[3-Cyclopentyl-(2S)-{[5-(3-fluoro-phenyl)-furan-2-carbonyl]-amino}propionylamino]-2-ethoxy-5-oxo-tetrahydrofuran] | ++ (++, >100) | + (+, >10) | ++ (++, >100) | < 100 nM |
| O=C1C[C@H](NC(=O)[C@H](CC2CCCC2)NC(=O)c2cccc(C(F)(F)F)c2)C(O)O1 (stereo partly drawn) [Example 24, (3S)-(3-Cyclopentyl-(2S)-(3-trifluoromethylphenyl-carbonylamino)-propionylamino)-4-oxo-butyric acid] | +++ (+++, >1000) | ++ (++, >100) | + (+, >10) | < 100 nM |
| CCO[C@@H]1OC(=O)C[C@@H]1NC(=O)[C@H](CC(C)(C)C)NC(=O)OC(C)(C)C [Example 13, (3S)-[(2S)-t-butoxycarbonylamino-4,4-dimethyl-pentanoylamino]-(2R)-ethoxy-5-oxo-tetrahydrofuran] | ++ (++, >100) |  | + (+, >10) | < 1000 nM |
| O=C1C[C@H](NC(=O)[C@H](CC2CCCC2)NC(=O)C2CC2)C(O)O1 (stereo partly drawn) [Example 19, (3S)-(3-Cyclopentyl-(2S)-(cyclopropylcarbonylamino)-propionylamino)-4-oxo-butyric acid] | +++ (+++, >1000) | ++ (++, >100) | +++ (+++, >1000) | < 100 nM |

The remaining lines, values ahead:

| Selectivity for Cat. S over Cat. B (Cathepsin B) | Selectivity for Cat. S over Cat. K (Cathepsin K) | Selectivity for Cat. S over Cat. L (Cathepsin L) | Ki (Cathepsin S) | Compound |
| --- | --- | --- | --- | --- |
| + (+, >10) | + (+, >10) |  | < 100 nM | O=C1C[C@H](NC(=O)[C@H](CC2CCCCC2)NC(=O)OCc2ccccc2)C(OCc2ccccc2)O1 (stereo partly drawn) [Example 11, (3S)-[(2S)-benzyloxycarbonylamino-3-cycohexyl-propionylamino]-2-benzyloxy-5-oxo-tetrahydrofuran] |
| +++ (+++, >1000) | ++ (++, >100) | ++ (++, >100) | < 100 nM | O=C1C[C@H](NC(=O)[C@H](CC2CCCCC2)NC(=O)c2ccc(-c3cccc(F)c3)o2)C(O)O1 (mixture of isomers) [Example 15, (3S)-(3-Cyclohexyl-(2S)-{[5-(3-fluoro-phenyl)-furan-2-carbonyl]-amino}-propionylamino)-4-oxo-butyric acid] |
| +++ (+++, >1000) | + (+, >10) | +++ (+++, >1000) | < 100 nM | CC(C)(C)C[C@H](NC(=O)C1CC1)C(=O)N[C@H]1CC(=O)OC1O (stereo partly drawn) [Example 22, (3S)-((2S)-(cyclopropylcarbonylamino)-4,4-dimethyl-pentanoylamino)-4-oxo-butyric acid] |
| +++ (+++, >1000) | ++ (++, >100) | +++ (+++, >1000) | < 100 nM | O=C1C[C@H](NC(=O)[C@H](CC2CCCC2)NC(=O)c2ccc(-c3cccc(C(F)(F)F)c3)o2)C(O)O1 (stereo partly drawn) [Example 23, (3S)-(3-Cyclopentyl-(2S)-{[5-(3-trifluoromethyl-phenyl)-furan-2-carbonyl]-amino}-propionylamino)-4-oxo-butyric acid] |
| ++ (++, >100) | + (+, >10) | ++ (++, >100) | < 100 nM | O=C1C[C@H](NC(=O)[C@H](CC2CC2)NC(=O)C2CC2)C(O)O1 (stereo partly drawn) [Example 21, (3S)-(3-Cyclopropyl-(2S)-(cyclopropylcarbonylamino)-propionylamino)-4-oxo-butyric acid] |
